Converted amounts (≈) assume the structure as drawn. “Also recorded” adds a separate entry of the source. Where two headings read alike, the source gives them in different places.
Key:
hygroscopicity by DVS = format: physicochemical
Experimental: Hygroscopicity of Freeform Form A, HCl Form A, Besylate Form B, and Gentisate Form A was evaluated by DVS.

[1] = solid state stability: storage at 25° C./60% RH and 40° C./75% RH for 1 week, XRPD and HPLC purity; format: physicochemical; settings: for Purity (area %): HPLC purity; for Form change: XRPD; for HPLC purity change after storage: 40° C./75% RH for 1 week
Experimental: For XRPD analysis, Empyrean X-ray powder diffractometer from Malvern Panalytical was used. Sample was spread on the middle of a zero-background Si holder.
XRPD and HPLC purity was performed for stability samples to assess the physical and chemical stability.

[2] = molecular target: sodium-dependent serotonin transporter (SERT) (Homo sapiens, UniProt P31645); settings: reported for the naturally occurring compound from Sceletium tortuosum; cited from earlier work
Sequence of sodium-dependent serotonin transporter (SERT) (P31645 whole entry, species assumed): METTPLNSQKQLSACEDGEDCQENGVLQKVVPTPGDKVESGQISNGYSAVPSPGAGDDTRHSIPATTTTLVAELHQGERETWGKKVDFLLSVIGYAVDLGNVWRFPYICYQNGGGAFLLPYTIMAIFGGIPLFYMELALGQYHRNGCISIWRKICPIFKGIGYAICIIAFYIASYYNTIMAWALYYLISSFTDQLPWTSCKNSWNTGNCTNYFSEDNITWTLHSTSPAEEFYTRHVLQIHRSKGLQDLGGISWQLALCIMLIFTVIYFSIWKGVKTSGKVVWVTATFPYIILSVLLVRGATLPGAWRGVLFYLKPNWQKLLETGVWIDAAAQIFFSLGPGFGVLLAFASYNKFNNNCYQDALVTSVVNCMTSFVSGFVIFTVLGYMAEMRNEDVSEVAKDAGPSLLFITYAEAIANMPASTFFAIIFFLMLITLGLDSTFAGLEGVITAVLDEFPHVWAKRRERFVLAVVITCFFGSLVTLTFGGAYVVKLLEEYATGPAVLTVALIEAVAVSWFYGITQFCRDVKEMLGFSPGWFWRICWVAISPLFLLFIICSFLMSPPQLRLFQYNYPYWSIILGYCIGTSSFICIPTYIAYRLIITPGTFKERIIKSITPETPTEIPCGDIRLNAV

[3] = kinetic solubility in H2O and bio-relevant media (SGF, FaSSIF, FeSSIF) at 37° C.; format: physicochemical; settings: thermodynamic from solid; for solubility: 37 °C, read-out: observed solubility; for solubility kinetic / solubility at 1 h / solubility at 2 h / solubility at 4 h / solubility at 24 h: 37° C.; for solubility kinetic: at 1, 2, 4 and 24 hrs; for solubility at 1 h / solubility at 2 h / solubility at 4 h / solubility at 24 h: read-out: S: Solubility (mg/mL), calculated by freebase
Experimental: • 1. Add about 40 mg of samples and 4 mL of corresponding medium into a 5-mL glass vial. The loading concentration was ˜10 mg/mL (calculated by freebase). • 2. Roll at 37° C. (˜25 rpm). Sample at 1, 2, 4 and 24 hrs. • 3. At each time-point, sample 0.8 mL of solution or suspension into a centrifuge tube prior to centrifugation (12000 rpm, 37° C., 5 min) and filtration through 0.45 μm PTFE membrane. • 4. Test pH and concentration for the filtrate. Analyze residual solids by XRPD.

[4] = solubility of Freeform Form A in solvents; format: physicochemical
Text: Freeform Form A was a gum material. The material had the solubility shown below:

For COc1ccc([C@@]23CCC(=O)C[C@@H]2N(C)CC3)cc1OC.O=S(=O)(O)c1ccccc1 [Besylate Form B], the “Water uptake at 25° C./80% RH (wt %)” value (hygroscopicity by DVS; DVS) was 0.32 wt %, the “water uptake at 25° C./80% RH” value (hygroscopicity by DVS; DVS) was 0.32% and the “Form change by XRPD after DVS test” value (hygroscopicity by DVS) was “No form change and No”. The “form change by XRPD after storage” value ([1]; 25° C./60% RH/open/1 week) was “no form change”, the “Purity (area %)” value ([1]; 25° C./60% RH/open/1 week) was 97.16 area % and the Form change ([1]; 25° C./60% RH/open/1 week) was “No”. For the same compound, the “HPLC purity change after storage” value [1] was “slight purity decrease”, the “form change by XRPD after storage” value ([1]; 40° C./75% RH/open/1 week) was “no form change” and the “Purity (area %)” value ([1]; 40° C./75% RH/open/1 week) was 97.12 area %. For the same compound, the Form change ([1]; 40° C./75% RH/open/1 week) was “No” and the “Purity (area %)” value ([1]; Initial) was 97.21 area %.
With COc1ccc(C23CCC(=O)CC2N(C)CC3)cc1OC.Cl (stereo not shown) [HCl Form A] the “Water uptake at 25° C./80% RH (wt %)” value (hygroscopicity by DVS; DVS) was 0.72 wt %, the “water uptake at 25° C./80% RH” value (hygroscopicity by DVS; DVS) was 0.72% and the “water uptake at 95% RH” value (hygroscopicity by DVS; DVS, 95% RH) was 18.46%. For the same compound, the “Form change by XRPD after DVS test” value (hygroscopicity by DVS) was “No form change”, the “Form change by XRPD after DVS test” value (hygroscopicity by DVS; listed as HCl salt Form A) was “No form change and No” and the “form change by XRPD after storage” value ([1]; 25° C./60% RH/open/1 week) was “no form change”. For the same compound, the “Purity (area %)” value ([1]; 25° C./60% RH/open/1 week) was 97.06 area %, the Form change ([1]; 25° C./60% RH/open/1 week) was “No” and the “HPLC purity change after storage” value [1] was “slight purity decrease”. The “form change by XRPD after storage” value ([1]; 40° C./75% RH/open/1 week) was “no form change”, the “Purity (area %)” value ([1]; 40° C./75% RH/open/1 week) was 97.00 area % and the Form change ([1]; 40° C./75% RH/open/1 week) was “No”. For the same compound, the “Purity (area %)” value ([1]; Initial) was 97.15 area %.
For COc1ccc([C@@]23CCC(=O)C[C@@H]2N(C)CC3)cc1OC [Compound 1, 3a-(3,4-dimethoxyphenyl)-octahydro-1-methyl-6H-indol-6-one], the “serotonin (5-HT) uptake inhibitory activity” value [2] is listed as “serotonin (5-HT) uptake inhibitory activity”.
With COc1ccc([C@@]23CCC(=O)C[C@@H]2N(C)CC3)cc1OC [Freeform Form A] the “Form change by XRPD after DVS test” value (hygroscopicity by DVS) was “amorphous; also recorded: Amorphous*”, the “behaviour during DVS test” value (hygroscopicity by DVS; during DVS test) was “deliquesced” and the solubility ([3]; simulated gastric fluid, in SGF) was over 8300 µg/mL. The solubility ([3]; in FaSSIF) was over 8300 µg/mL, the solubility ([3]; in FeSSIF) was over 8300 µg/mL and the solubility ([3]; water, in H2O) was over 8300 µg/mL. It also gave a solubility kinetic ([3]; simulated gastric fluid, SGF) of over 8300 µg/mL, a solubility at 1 h ([3]; simulated gastric fluid, SGF) of over 8.6 mg/mL and a solubility at 2 h ([3]; simulated gastric fluid, SGF) of over 9.2 mg/mL. It also gave a solubility at 4 h ([3]; simulated gastric fluid, SGF) of over 8.4 mg/mL, a solubility at 24 h ([3]; simulated gastric fluid, SGF) of over 8.7 mg/mL and a solubility kinetic ([3]; FaSSIF) of over 8300 µg/mL. The solubility at 1 h ([3]; FaSSIF) was over 8.7 mg/mL, the solubility at 2 h ([3]; FaSSIF) was over 8.7 mg/mL and the solubility at 4 h ([3]; FaSSIF) was over 8.3 mg/mL. The solubility at 24 h ([3]; FaSSIF) was over 8.5 mg/mL, the solubility kinetic ([3]; FeSSIF) was over 8300 µg/mL and the solubility at 1 h ([3]; FeSSIF) was over 8.7 mg/mL. For the same compound, the solubility at 2 h ([3]; FeSSIF) was over 9.8 mg/mL, the solubility at 4 h ([3]; FeSSIF) was over 9.1 mg/mL and the solubility at 24 h ([3]; FeSSIF) was over 9.9 mg/mL. It also gave a solubility kinetic ([3]; water, H2O) of over 8300 µg/mL, a solubility at 1 h ([3]; water, H2O) of over 9.1 mg/mL and a solubility at 2 h ([3]; water, H2O) of over 9.3 mg/mL. For the same compound, the solubility at 4 h ([3]; water, H2O) was over 9.4 mg/mL, the solubility at 24 h ([3]; water, H2O) was over 9.3 mg/mL and the solubility ([4]; 1,4-Dioxane, organic solvent or mixture) was over 40000 µg/mL. It also gave a solubility ([4]; 2-MeTHF, organic solvent or mixture) of over 40000 µg/mL, a solubility ([4]; ACN, organic solvent or mixture) of over 44000 µg/mL and a solubility ([4]; Acetone, organic solvent or mixture) of over 40000 µg/mL. For the same compound, the solubility ([4]; CPME, organic solvent or mixture) was over 40000 µg/mL, the solubility ([4]; DCM, organic solvent or mixture) was over 42000 µg/mL and the solubility ([4]; EtOAc, organic solvent or mixture) was 19000 to 38000 µg/mL (≈ 65.7 to 131 mM). The solubility ([4]; EtOH, organic solvent or mixture) was over 42000 µg/mL, the solubility ([4]; H2O, water) was over 42000 µg/mL and the solubility ([4]; IPA, organic solvent or mixture) was over 38000 µg/mL. It also gave a solubility ([4]; IPAc, organic solvent or mixture) of over 36000 µg/mL, a solubility ([4]; MIBK, organic solvent or mixture) of over 38000 µg/mL and a solubility ([4]; MTBE, organic solvent or mixture) of over 40000 µg/mL. For the same compound, the solubility ([4]; MeOH, organic solvent or mixture) was over 36000 µg/mL, the solubility ([4]; THF, organic solvent or mixture) was over 44000 µg/mL and the “form change by XRPD after storage” value ([1]; 25° C./60% RH/open/1 week) was “amorphous”. The “Purity (area %)” value ([1]; 25° C./60% RH/open/1 week) was 98.14 area %, the Form change ([1]; 25° C./60% RH/open/1 week) was “Amorphous” and the “HPLC purity change after storage” value [1] was “slight purity decrease”. The “form change by XRPD after storage” value ([1]; 40° C./75% RH/open/1 week) was “amorphous”, the “Purity (area %)” value ([1]; 40° C./75% RH/open/1 week) was 98.01 area % and the Form change ([1]; 40° C./75% RH/open/1 week) was “Amorphous”. For the same compound, the “Purity (area %)” value ([1]; Initial) was 98.15 area %.
For COc1ccc([C@@]23CCC(=O)C[C@@H]2N(C)CC3)cc1OC.O=C(O)c1cc(O)ccc1O [Gentisate Form A], the “Water uptake at 25° C./80% RH (wt %)” value (hygroscopicity by DVS; DVS) was 0.17 wt %, the “water uptake at 25° C./80% RH” value (hygroscopicity by DVS; DVS) was 0.17% and the “Form change by XRPD after DVS test” value (hygroscopicity by DVS) was “No form change and No”. The “form change by XRPD after storage” value ([1]; 25° C./60% RH/open/1 week) was “no form change”, the “Purity (area %)” value ([1]; 25° C./60% RH/open/1 week) was 97.18 area % and the Form change ([1]; 25° C./60% RH/open/1 week) was “No”. The “HPLC purity change after storage” value [1] was “slight purity decrease”, the “form change by XRPD after storage” value ([1]; 40° C./75% RH/open/1 week) was “no form change” and the “Purity (area %)” value ([1]; 40° C./75% RH/open/1 week) was 97.11 area %. For the same compound, the Form change ([1]; 40° C./75% RH/open/1 week) was “No” and the “Purity (area %)” value ([1]; Initial) was 97.22 area %.
